Test results: patent US6797721B2, “Phorboxazole derivatives for treating cancer” (Parker Hughes Institute, priority 1999, dated 2004)

What was measured:
[1] = system: BT-20 breast cancer cells; experiment: In vitro adhesion assay to ECM proteins, BT-20; format: cell-based, human; conditions: laminin-, fibronectin-, and collagen-coated plates, 0.1 μM to 1 μM for 24 hours
Protocol: Human brain tumor cell lines U-373 MG and breast cancer cell lines BT-20 and MDA-MB-231 were obtained from American Type Culture Collection (ATCC, Rockville, Md.) and maintained in liquid culture using DMEM supplemented with 10% fetal bovine serum and antibiotics. Fibroblast conditioned medium was used as a source of chemoattractant in vitro invasion assays. Conditioned medium was prepared as described in the literature (Albini et.al., 1987, Cancer Res., 47:3239-3245).
In vitro adhesion assays were performed to (a) study the baseline adhesive properties of various breast cancer and glioblastoma cell lines and (b) evaluate the effects of phorboxazole A derivatives on the adhesive properties of breast cancer and glioblastoma cells. The plates for the adhesion assays were precoated with the extracellular matrix proteins laminin, fibronectin, or type IV collagen (each at a final concentration of 1 μg/ml in PBS) overnight at 4° C. and dried. On the day of the experiment, the wells were rehydrated and blocked with 10% bovine serum albumin in PBS for 1 hour at room temperature and used for the adhesion assays, as described below.
The effects of synthetic phorboxazole A and specific derivatives on adhesion of breast cancer and glioblastoma cells was studied. Exponentially growing cells in DMEM were incubated with phorboxazole compounds or genistein as a control at concentrations ranging from 0.1 μM to 1 μM for 24 hours in a humidified 5% CO2 atmosphere. DMSO (0.1%) was included as a vehicle control. After treatment, cells were detached from the flasks with 0.05% trypsin (Life Technologies) resuspended in DMEM, incubated at 37° C. for 2 hours to allow them to recover from the trypsinization stress and examined for their ability to adhere to plates precoated with ECM proteins.
In adhesion assays, cells were centrifuged, washed twice with serum-free DMEM, counted and resuspended in serum-free DMEM to a final concentration of 2.5×10^5 cells/ml. […] The adherent fraction was quantitated using MTT (3-[4,5-dimethylthiazol-2-yl]-2,5-diphenyltetrazolium bromide) assays. […] The absorbance of each well was measured in a microplate reader (Labsystems) at 540 nm and a reference wavelength of 690 nm.
To translate the OD540 values into the number of cells in each well, the OD540 values were compared to those on standard OD540-versus-cell number curves generated for each cell line. The adherent fractions of cells treated with phorboxazole A derivatives were compared to those of DMSO-treated control cells and the percent inhibition of adhesion was determined using the formula: [formula]
Each treatment condition was evaluated in duplicate in 3 independent experiments. The IC50 values were calculated by non-linear regression analysis. […]

U373 glioblastoma cells = experiment: Matrigel invasion assay (Boyden chambers); format: cell-based; conditions: Homo sapiens, U373 MG; cells treated 72 hours; invasion 48 hours; read-out: IC50, inhibition of glioblastoma cell invasion through Matrigel
Protocol: The in vitro invasiveness of human brain tumor cell lines U-373 MG and breast cancer cell lines BT-20 and MDA-MB-231 cells was assayed using a previously published method which employs Matrigel™-coated Costar 24-well transwell cell culture chambers (“Boyden chambers”) with 8.0-μm-pore polycarbonate filter inserts (Albini,et.al, 1987, Cancer Res., 47:3239-3245). The chamber filters were coated with 50 μg/ml of Matrigel™ matrix, incubated overnight at room temperature under a laminar flow hood and stored at 4° C. Matrigel™ matrix is made up of several components of the extracellular matrix (ECM), including collagen, laminin and proteo-glycans. The cancer cells were incubated with 500, 250, 125, 62.5, and 31.2 nM concentrations of the synthetic Phorboxazole compounds for 72 hours.
On the day of the experiment, the coated inserts were rehydrated with 0.5 ml serum-free DMEM containing 0.1% bovine serum albumin for 1-2 hours. The treated cells were trypsinized, washed twice with serum-free DMEM containing BSA, counted and resuspended at 1×10^5 cells/ml. A 0.5 ml cell suspension containing 5×10^4 cells in a serum-free DMEM was added to the Matrigel™-coated and rehydrated filter inserts. A volume of 750 μl of NIH fibroblast conditioned medium was placed as a chemoattractant in 24-well plates and the inserts were placed in wells and incubated at 37° C. for 48 hours.
The invasive cells that migrated to the lower side of the filter were fixed, stained with Hema-3 solutions and counted under microscope. Five to 10 random fields per filter were counted to determine the mean (±SE) values for the invasive fraction. The invasive fractions of cells treated with phorboxazole A derivatives were compared to those of DMSO treated control cells and the percent inhibition of invasiveness was determined using the formula: [formula]
Each treatment condition was evaluated in duplicate in 3 independent experiments. IC50 values were calculated by non-linear regression analysis using Graphpad Prisin Software Version 2.0 (Graphpad Software Inc., San Diego, Calif.).

[2] = system: U266BL (multiple myeloma); experiment: MTT cytotoxicity assay, U266BL; format: cell-based; conditions: Homo sapiens
Protocol: The cytotoxicity assay of synthetic Phorboxazole A and various derivative compounds against human tumor cells was performed using the MTT (3-[4,5-dimethylthiazol-2-yl]-2,5-diphenyl tetrazolium bromide) assay (Boehringer Mannheim Corp., Indianapolis, Ind.). Briefly, exponentially growing brain tumor cells were seeded into a 96-well plate at a density of 2.5×10^4 cells/well and incubated for 36 hours at 37° C. prior to drug exposure. On the day of treatment, culture medium was carefully aspirated from the wells and replaced with fresh medium containing the various phorboxazole A derivative compounds as well as the tyrosine kinase inhibitory isoflavone genistein (GEN) at concentrations ranging from 0.1 to 250 μM. Triplicate wells were used for each treatment.
The cells were incubated with the various compounds for 24-36 hours at 37° C. in a humidified 5% CO2 atmosphere. To each well, 10 μl of MTT (0.5 mg/ml final concentration) was added and the plates were incubated at 37° C. for 4 hours to allow MTT to form formazan crystals by reacting with metabolically active cells. […] The absorbance of each well was measured in a microplate reader (Labsystems) at 540 nm and a reference wavelength of 690 nm. […] The percent survival was calculated using the formula: [formula]
The IC50 values were calculated by non-linear regression analysis. […]

## C=C1C[C@@H]2C[C@@H]3C[C@@H](O)C[C@@H](O3)c3coc(n3)/C=C/C[C@H]3O[C@@H](/C(C)=C/c4coc(C[C@]5(O)C[C@H](OC)C[C@H]([C@H](O)/C=C(C)/C=C/[C@@H](C/C=C/Br)OC)O5)n4)[C@H](C)[C@@H](OC(=O)/C=C\C[C@@H](C1)O2)[C@H]3C [Compound 1, Phorboxazole A]
[1]
  Inhibition of cell adhesion: active
U373 glioblastoma cells
  IC50: < 31.2 nM
[2]
  IC50: 14.9 nM
